According to patent US6881741B2 (ViroChem Pharma Inc., priority 2001, dated 2005):

Target: recombinant HCV NS5B (HCV RNA-dependent RNA polymerase) (Hepatitis C virus genotype 1b, UniProt P26663)
Experiment: biochemical
Conditions: HCV polymerase activity, list of compounds of Example 27; read-out: IC50 (polymerase activity)

recombinant HCV NS5B (HCV RNA-dependent RNA polymerase), sequence (P26663 2420-3010 limits assumed): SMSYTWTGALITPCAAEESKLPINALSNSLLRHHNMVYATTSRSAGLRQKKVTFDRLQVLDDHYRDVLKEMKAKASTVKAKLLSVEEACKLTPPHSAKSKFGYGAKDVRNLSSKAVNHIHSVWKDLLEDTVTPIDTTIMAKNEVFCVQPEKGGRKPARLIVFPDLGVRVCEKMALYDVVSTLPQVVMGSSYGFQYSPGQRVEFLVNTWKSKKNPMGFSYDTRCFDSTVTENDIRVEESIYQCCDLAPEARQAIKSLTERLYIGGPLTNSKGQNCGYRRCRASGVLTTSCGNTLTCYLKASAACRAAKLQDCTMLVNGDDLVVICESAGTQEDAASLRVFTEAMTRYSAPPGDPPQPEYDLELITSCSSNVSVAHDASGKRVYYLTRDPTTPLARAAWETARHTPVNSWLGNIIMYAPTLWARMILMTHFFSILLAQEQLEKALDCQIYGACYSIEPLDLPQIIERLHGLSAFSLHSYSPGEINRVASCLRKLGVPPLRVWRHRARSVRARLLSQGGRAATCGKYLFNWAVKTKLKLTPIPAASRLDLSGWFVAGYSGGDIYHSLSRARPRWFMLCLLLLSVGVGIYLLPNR

SMILES	IC50 [µM]
CC(C)C(=O)N(Cc1ccc(C(F)(F)F)cc1)c1cc(-c2ccccc2)sc1C(=O)O [Compound 411, 3-[ISOBUTYRYL-(4-TRIFLUOROMETHYL- BENZYL)-AMINO]-5-PHENYL-THIOPHENE- 2-CARBOXYLIC ACID]	5 to 20
CCCC1CCC(C(=O)N(c2cc(-c3ccccc3)sc2C(=O)O)C(C)C)CC1 (stereo not drawn) [Compound 527, 3-[ISOPROPYL-(4-PROPYL- CYCLOHEXANECARBONYL)-AMINO]-5- PHENYL-THIOPHENE-2-CARBOXYLIC ACID]	< 5
CC(C)N(C(=O)c1ccc(Cl)cc1Cl)c1cc(C2=CCN(C(=O)OCc3ccccc3)CC2)sc1C(=O)O [Compound 504, 4-(5-CARBOXY-4-[(2,4-DICHLORO- BENZOYL)-ISOPROPYL-AMINO]- THIOPHEN-2-YL)-3,6-DIHYDRO-2#H!- PYRIDINE-1-CARBOXYLIC ACID BENZYL ESTER]	< 5
CC1CN(C(=O)OCc2ccccc2)CCC1N(C(=O)c1ccc(Cl)cc1Cl)c1cc(-c2ccccc2)sc1C(=O)O (stereo not drawn) [Compound 533, 4-[(2-CARBOXY-5-PHENYL-THIOPHEN-3- YL)-(2,4-DICHLORO-BENZOYL)-AMINO]-3- METHYL- PIPERIDINE-1-CARBOXYLIC ACID BENZYL ESTER]	< 5
O=C(O)c1sc(-c2ccccc2)cc1N(Cc1ccc(Cl)cc1)C(=O)C1CCC1 [Compound 461, 3-[(4-CHLORO-BENZYL)- CYCLOBUTANECARBONYL-AMINO]-5- PHENYL-THIOPHENE-2-CARBOXYLIC ACID]	5 to 20
CCCC(=O)N(Cc1ccc(C)cc1)c1cc(-c2ccccc2)sc1C(=O)O [Compound 470, 3-[BUTYRYL-(4-METHYL-BENZYL)- AMINO]-5-PHENYL-THIOPHENE-2- CARBOXYLIC ACID]	5 to 20
CC(C)N(C(=O)C1CCC(Cl)CC1)c1cc(-c2ccccc2)sc1C(=O)O (stereo not drawn) [Compound 532, 3-[(4-CHLORO- CYCLOHEXANECARBONYL)-ISOPROPYL- AMINO]-5-PHENYL-THIOPHENE-2- CARBOXYLIC ACID]	< 5
CCC(=O)N(Cc1ccc(C(F)(F)F)cc1)c1cc(-c2ccccc2)sc1C(=O)O [Compound 410, 5-PHENYL-3-[PROPIONYL-(4- TRIFLUOROMETHYL-BENZYL)-AMINO]- THIOPHENE-2-CARBOXYLIC ACID]	5 to 20
CCCC(=O)N(Cc1ccccc1Cl)c1cc(-c2ccccc2)sc1C(=O)O [Compound 447, 3-[BUTYRYL-(2-CHLORO-BENZYL)- AMINO]-5-PHENYL-THIOPHENE-2- CARBOXYLIC ACID]	< 5
CC(C)C(=O)N(Cc1ccc(C(C)(C)C)cc1)c1cc(-c2ccccc2)sc1C(=O)O [Compound 437, 3-[(4-TERT-BUTYL-BENZYL)- ISOBUTYRYL-AMINO]-5-PHENYL- THIOPHENE-2-CARBOXYLIC ACID]	5 to 20
Cc1ccc(S(=O)(=O)Nc2cc(-c3ccc(F)cc3)sc2C(N)=O)cc1 [Compound 564, 5-(4-FLUORO-PHENYL)-3-(TOLUENE-4- SULFONYLAMINO)-THIOPHENE-2- CARBOXYLIC ACID AMIDE]	5 to 20
O=C(O)c1sc(-c2ccccc2)cc1N(Cc1ccccc1Cl)C(=O)C1CCCCC1 [Compound 444, 3-[(2-CHLORO-BENZYL)- CYCLOHEXANECARBONYL-AMINO]-5- PHENYL-THIOPHENE-2-CARBOXYLIC ACID]	< 5
CC1CCC(C(=O)N(c2ccncc2)c2cc(-c3ccccc3)sc2C(=O)O)CC1 (stereo not drawn) [Compound 525, 3-[(4-METHYL- CYCLOHEXANECARBONYL)-PYRIDIN-4- YL-AMINO]-5-PHENYL-THIOPHENE-2- CARBOXYLIC ACID]	< 5

Same assay, conditions: related polymerase activity (Example 27 list); read-out: IC50

SMILES	IC50 [µM]
O=C(O)c1sc(-c2ccccc2)cc1NC(=O)N1CCC2(CC1)C(=O)NCN2c1ccccc1 [Compound 112, 3-[(4-OXO-1-PHENYL-1,3,8-TRIAZA-SPIRO[4,5]DECANE-8-CARBONYL)-AMINO]-5-PHENYL-THIOPHENE-2-CARBOXYLIC ACID]	< 5
Cc1cc(Cl)ccc1S(=O)(=O)Nc1cc(-c2ccccc2)sc1C(=O)O [Compound 372, 3-(4-CHLORO-2-METHYL- BENZENESULFONYLAMINO)-5-PHENYL- THIOPHENE-2-CARBOXYLIC ACID]	< 5
NC(=O)c1ccc(-c2cc(NS(=O)(=O)c3ccc(Cl)cc3)c(C(=O)O)s2)cc1 [Compound 265, 5-(4-CARBAMOYL-PHENYL)-3-(4-CHLORO-BENZENESULFONYLAMINO)-THIOPHENE-2-CARBOXYLIC ACID]	< 5
O=C(O)c1sc(-c2ccccc2)cc1NS(=O)(=O)c1ccc(Cl)c(Cl)c1 [Compound 34, 3-(3,4-DICHLORO-BENZENESULFONYLAMINO)-5-PHENYL-THIOPHENE-2-CARBOXYLIC ACID]	5 to 20
CN(C(=O)c1ccc(C(C)(C)C)cc1)c1cc(-c2ccccc2)sc1C(=O)O [Compound 247, 3-[(4-TERT-BUTYL-BENZOYL)-METHYL-AMINO]-5-PHENYL-THIOPHENE-2-CARBOXYLIC ACID]	5 to 20
Cc1ccc(C(=O)N(Cc2ccc(Cl)cc2)c2cc(-c3ccccc3)sc2C(=O)O)cc1 [Compound 341, 3-[(4-CHLORO-BENZYL)-(4-METHYL- BENZOYL)-AMINO]-5-PHENYL- THIOPHENE-2-CARBOXYLIC ACID]	< 5
CCN(C(=O)CCC1CCCC1)c1cc(-c2ccccc2)sc1C(=O)O [Compound 392, 3-[(3-CYCLOPENTYL-PROPIONYL)- ETHYL-AMINO]-5-PHENYL-THIOPHENE-2- CARBOXYLIC ACID]	< 5
CCCN(C(=O)c1ccc(C)cc1)c1cc(-c2ccc(CCC(=O)O)cc2)sc1C(=O)O [Compound 318, 5-[4-(2-CARBOXY-ETHYL)-PHENYL]-3-[(4- METHYL-BENZOYL)-PROPYL-AMINO]- THIOPHENE-2-CARBOXYLIC ACID]	5 to 20
Cc1ccc(C(=O)N(C)c2cc(-c3cccc(Cl)c3)sc2C(=O)O)cc1 [Compound 269, 5-(3-CHLORO-PHENYL)-3-[METHYL-(4-METHYL-BENZOYL)-AMINO]-THIOPHENE-2-CARBOXYLIC ACID]	< 5
CCN(C(=O)C1CCCC1)c1cc(-c2ccccc2)sc1C(=O)O [Compound 391, 3-(CYCLOPENTANECARBONYL-ETHYL- AMINO)-5-PHENYL-THIOPHENE-2- CARBOXYLIC ACID]	5 to 20
Cc1ccccc1S(=O)(=O)Nc1cc(-c2cccc(N)c2)sc1C(=O)O [Compound 164, 5-(3-AMINO-PHENYL)-3-(TOLUENE-2-SULFONYLAMINO)-THIOPHENE-2-CARBOXYLIC ACID]	5 to 20
Cc1cc(S(=O)(=O)N(C)c2cc(-c3ccccc3)sc2C(=O)O)c(C)cc1Cl [Compound 5, 3-[(4-CHLORO-2,5-DIMETHYL-BENZENESULFONYL)-METHYL-AMINO]-5-PHENYL-THIOPHENE-2-CARBOXYLIC ACID]	5 to 20
Cc1cc(F)ccc1S(=O)(=O)Nc1cc(-c2ccccc2)sc1C(=O)O [Compound 370, 3-(4-FLUORO-2-METHYL- BENZENESULFONYLAMINO)-5-PHENYL- THIOPHENE-2-CARBOXYLIC ACID]	5 to 20
Cc1ccccc1S(=O)(=O)Nc1cc(C#C[Si](C)(C)C)sc1C(=O)O [Compound 79]	< 5
CC(C)N(C(=O)c1ccc(Cl)cc1Cl)c1cc(-c2ccc([S+](C)[O-])cc2)sc1C(=O)O (stereo not drawn) [Compound 374, 3-[(2,4-DICHLORO-BENZOYL)- ISOPROPYL-AMINO]-5-(4- METHANESULFINYL-PHENYL)- THIOPHENE-2-CARBOXYLIC ACID]	< 5
Cc1ccc(C(=O)N(C)c2cc(-c3ccccc3F)sc2C(=O)O)cc1 [Compound 266, 5-(2-FLUORO-PHENYL)-3-[METHYL-(4-METHYL-BENZOYL)-AMINO]-THIOPHENE-2-CARBOXYLIC ACID]	< 5
CC(C)N(C(=O)c1cc(Cl)cc(Cl)c1)c1cc(-c2ccccc2)sc1C(=O)O [Compound 219, 3-[(3,5-DICHLORO-BENZOYL)-ISOPROPYL-AMINO]-5-PHENYL-THIOPHENE-2-CARBOXYLIC ACID]	5 to 20
Cc1ccc(C(=O)N(C)c2cc(-c3cccc(C(F)(F)F)c3)sc2C(=O)O)cc1 [Compound 274, 3-[METHYL-(4-METHYL-BENZOYL)-AMINO]-5-(3-TRIFLUOROMETHYL-PHENYL)-THIOPHENE-2-CARBOXYLIC ACID]	< 5
CN(C(=O)c1cc2ccccc2s1)c1cc(-c2ccccc2)sc1C(=O)O [Compound 251, 3-[(BENZO[B]THIOPHENE-2-CARBONYL)-METHYL-AMINO]-5-PHENYL-THIOPHENE-2-CARBOXYLIC ACID]	5 to 20
COc1ccc(N2CCN(C(=O)Nc3cc(-c4ccccc4)sc3C(=O)O)CC2)cc1 [Compound 181, 3-{[4-(4-METHOXY-PHENYL)-PIPERAZINE-1-CARBONYL]-AMINO}-5-PHENYL-THIOPHENE-2-CARBOXYLIC ACID]	5 to 20
Cc1ccccc1S(=O)(=O)Nc1cc(-c2ccc(C(=O)O)cc2)sc1C(=O)OC(C)(C)C [Compound 239, 5-(4-CARBOXY-PHENYL)-3-(TOLUENE-2-SULFONYLAMINO)-THIOPHENE-2-CARBOXYLIC ACID TERT-BUTYL ESTER]	5 to 20
Cc1ccc(C(=O)N(C)c2cc(-c3cc(F)cc(F)c3)sc2C(=O)O)cc1 [Compound 212, 5-(3,5-DIFLUORO-PHENYL)-3-[METHYL-(4-METHYL-BENZOYL)-AMINO]-THIOPHENE-2-CARBOXYLIC ACID]	< 5
O=C(O)c1sc(-c2ccc(F)cc2)cc1NS(=O)(=O)c1ccccc1 [Compound 135, 3-BENZENESULFONYLAMINO-5-(4-FLUORO-PHENYL)-THIOPHENE-2-CARBOXYLIC ACID]	< 5
O=C(O)c1sc(-c2ccccc2)cc1NS(=O)(=O)c1c(Cl)cccc1Cl [Compound 44, 3-(2,6-DICHLORO-BENZENESULFONYLAMINO)-5-PHENYL-THIOPHENE-2-CARBOXYLIC ACID]	< 5
Cc1ccccc1S(=O)(=O)Nc1cc(-c2ccc(F)c(Cl)c2)sc1C(=O)O [Compound 91, 5-(3-CHLORO-4-FLUORO-PHENYL)-3-(TOLUENE-2-SULFONYLAMINO)-THIOPHENE-2-CARBOXYLIC ACID]	5 to 20
O=C(O)c1sc(-c2ccccc2)cc1NS(=O)(=O)c1cc(OCC(F)(F)F)ccc1OCC(F)(F)F [Compound 176, 3-[2,5-BIS-(2,2,2-TRIFLUORO-ETHOXY)-BENZENESULFONYLAMINO]-5-PHENYL-THIOPHENE-2-CARBOXYLIC ACID]	5 to 20
